Source: US20060205826A1, “Method of using carotenoids in the prevention of cognitive decline and for other neuroprotection functions” (priority 2005, published 2006)
Entries after “also recorded” stand apart in the source; their conditions may differ.

Legend:
alloxan diabetic mice [1] = assay: Morris water maze (spatial learning and memory) in diabetic mice; format: in vivo
Protocol: Male albino mice were used throughout the study, housed in a environmentally regulated room on a dark-light cycle of 12 hours with free access to food and water. Principles of laboratory animal care (NIH publication no. 85-23, revised 1985) were followed, as well as specific Spanish regulations. Animals were made diabetic with a single subcutaneous injection of 200 mg alloxan/kg body weight (66 mg/ml) in 0.1 M citrate buffer, pH 4.5, at day 0 of the experiment. Control mice were injected with the same volume of vehicle also at day 0 of the experiment. Mice were identified as diabetic on the basis of blood glucose levels (higher than 16 mM at least 4 days after alloxan treatment). Animals were divided into subgroups as required by the experiment (control, control+lutein, diabetic, diabetic+lutein, diabetic+insulin, diabetic+insulin+lutein). Lutein was administered daily at a dose of 0.2 mg/kg p.o since day 4 after alloxan or citrate buffer injection until the end of the experiment. […] Glycated hemoglobin was determined in blood samples obtained by heart puncture immediately before killing the animals. […] We measured the duration from the time the mouse was dropped into the maze to the time the mouse climbed onto the platform (latency time). The latency was recorded manually using a stopwatch. […] The percentage of time spent in each of the pool quadrants was also recorded.

hippocampal stem cells = assay: Hippocampal neurogenesis (BrdU immunostaining, cell counting) in diabetic mice; format: in vivo; settings: two weeks after the induction of diabetes, preliminary data
Excerpt: All animals were killed with a barbiturate overdose; each group had n>8. After intracardial perfusion with 4% paraformaldehyde, brains were cut into 40-μm-thick sections (200 μm, 1 every sixth section, used for electron microscopy analysis) with a vibratome (Leica VT100M).
Sections were immersed free-floating in 0.1 M phosphate buffer plus 0.05 % sodium azide. Twenty-four-well plates were used to keep the sections separate and preserve the order of the series. Sections that were 40 μm thick were used for cell counting. Incubations were performed in 0.1 M phosphate buffer with 0.2% Triton X-100 and 10% normal goat serum. Sections were blocked by incubating for 30 min in a solution of 3% hydrogen peroxide for diaminobenzidine (Sigma) staining. BrdU immunohistochemistry was preceded with DNA denaturation of 25 min of incubation in 2 M HCl at 37° C. The primary antibodies used were 1:200 mouse anti-BrdU (Dako). […]
Cell Counting. BrdU-positive cells were counted in sections spaced 400 μm apart by using a Nikon Eclipse E200 with a Nikon 40X Plan objective (0.65 numerical aperture) throughout the granule cell layer. […] Data were expressed as total, for the whole structure, and also subanalyzed in three regions: anterior, middle, and posterior.

alloxan diabetic mice [2] = settings: diabetic animals; Miranda et al., 2004; cited from earlier work

CC1=C[C@H](O)CC(C)(C)[C@H]1/C=C/C(C)=C/C=C/C(C)=C/C=C/C=C(C)/C=C/C=C(C)/C=C/C1=C(C)C[C@@H](O)CC1(C)C [Lutein]
escape latencies in the Morris water maze (alloxan diabetic mice [1]): diminished
proliferation of hippocampal stem cells (hippocampal stem cells): able to prevent the impairment in proliferation; also recorded: able to restore this alteration
b-wave amplitude of the electroretinogram (alloxan diabetic mice [2]): restored
